Data as given in ChEMBL document CHEMBL5523723, “G Protein-Coupled Estrogen Receptor-Mediated Anti-Inflammatory and Mucosal Healing Activity of a Trimethylpyridinol Analogue in Inflammatory Bowel Disease” (J Med Chem, 2024).

Experiments:
hERG = hERG (Homo sapiens, UniProt Q12809); test: Inhibition of hERG expressed in HEK cells assessed as remaining activity at 10 uM by automated patch clamp method relative to control; format: toxicity, cell-based; conditions: HEK cells expressing hERG, read-out: Activity
hERG, sequence (Q12809 whole entry): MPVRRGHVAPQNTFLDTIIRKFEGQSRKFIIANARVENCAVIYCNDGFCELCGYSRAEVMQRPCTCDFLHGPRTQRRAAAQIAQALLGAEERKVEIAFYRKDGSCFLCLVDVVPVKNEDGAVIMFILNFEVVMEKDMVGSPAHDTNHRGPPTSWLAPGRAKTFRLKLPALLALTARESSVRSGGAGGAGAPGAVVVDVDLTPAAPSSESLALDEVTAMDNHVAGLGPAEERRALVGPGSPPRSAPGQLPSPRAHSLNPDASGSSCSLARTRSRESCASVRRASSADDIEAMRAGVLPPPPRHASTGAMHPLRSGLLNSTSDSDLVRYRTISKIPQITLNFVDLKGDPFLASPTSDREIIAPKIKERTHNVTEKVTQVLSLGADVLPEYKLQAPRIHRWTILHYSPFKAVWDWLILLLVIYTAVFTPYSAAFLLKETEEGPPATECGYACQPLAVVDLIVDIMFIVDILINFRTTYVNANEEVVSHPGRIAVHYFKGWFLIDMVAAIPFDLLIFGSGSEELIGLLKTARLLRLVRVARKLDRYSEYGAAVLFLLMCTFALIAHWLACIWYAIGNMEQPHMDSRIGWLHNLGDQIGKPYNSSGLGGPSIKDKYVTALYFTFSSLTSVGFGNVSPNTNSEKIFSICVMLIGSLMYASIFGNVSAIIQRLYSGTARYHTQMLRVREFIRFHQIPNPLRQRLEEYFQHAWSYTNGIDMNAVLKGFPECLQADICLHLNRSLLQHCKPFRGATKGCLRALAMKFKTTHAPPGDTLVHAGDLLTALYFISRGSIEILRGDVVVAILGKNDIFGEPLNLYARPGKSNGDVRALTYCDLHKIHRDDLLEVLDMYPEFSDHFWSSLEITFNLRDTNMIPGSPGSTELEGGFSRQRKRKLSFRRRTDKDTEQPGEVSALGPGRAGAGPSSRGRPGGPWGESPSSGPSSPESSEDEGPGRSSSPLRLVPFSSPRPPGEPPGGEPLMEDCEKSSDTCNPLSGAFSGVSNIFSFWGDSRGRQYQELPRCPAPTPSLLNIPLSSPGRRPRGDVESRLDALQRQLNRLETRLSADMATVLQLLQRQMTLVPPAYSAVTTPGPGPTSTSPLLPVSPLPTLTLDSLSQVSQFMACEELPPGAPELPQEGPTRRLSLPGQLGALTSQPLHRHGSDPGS

HT-29 [1] = test: Induction of apoptosis in human HT-29 cells assessed as viable cells at 10 uM incubated for 24 hrs by Annexin V FITC/PI staining based flow cytometry analysis ( Rvb = 99 +/- 0.1%); format: functional; conditions: read-out: Activity
[2] = Mean residence time in Sprague-Dawley rat at 5 mg/kg, po by LC-MS analysis; format: ADME, organism-based; conditions: in vivo
CYP1A2 = target: T1, CYP1A2 (Homo sapiens, UniProt P05177); test: Inhibition of CYP1A2 in human liver microsomes assessed as remaining activity at 10 uM using phenacetin as substrate preincubated for 5 mins followed by NADPH generating system addition for 15 mins by LC-MS/MS method relative to control; format: ADME, Microsome; conditions: probe phenacetin, time 20 min, read-out: Activity
T1 sequence (P05177 whole entry): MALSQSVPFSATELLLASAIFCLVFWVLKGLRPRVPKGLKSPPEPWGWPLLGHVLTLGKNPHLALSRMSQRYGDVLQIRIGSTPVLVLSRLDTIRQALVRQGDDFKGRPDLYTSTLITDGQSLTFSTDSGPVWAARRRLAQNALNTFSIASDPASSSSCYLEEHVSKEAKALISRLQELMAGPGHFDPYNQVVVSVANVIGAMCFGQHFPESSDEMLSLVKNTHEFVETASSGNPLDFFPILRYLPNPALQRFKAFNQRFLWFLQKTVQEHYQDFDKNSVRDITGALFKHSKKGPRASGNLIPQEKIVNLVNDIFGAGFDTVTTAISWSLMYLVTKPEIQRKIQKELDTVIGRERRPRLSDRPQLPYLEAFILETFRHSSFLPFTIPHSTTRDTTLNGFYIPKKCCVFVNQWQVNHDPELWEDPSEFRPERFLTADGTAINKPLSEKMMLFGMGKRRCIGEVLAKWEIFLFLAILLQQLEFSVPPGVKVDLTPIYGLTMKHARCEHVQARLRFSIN

[3] = AUC(0 to t) in Sprague-Dawley rat at 1 mg/kg, iv by LC-MS analysis; format: ADME, organism-based; conditions: in vivo
[4] = Volume of distribution at steady state in Sprague-Dawley rat at 1 mg/kg, iv by LC-MS analysis; format: ADME, organism-based; conditions: in vivo, read-out: Vdss
[5] = Acute toxicity in ICR mouse assessed as change in food intake at 30 to 300 mg/kg, po measured every other day for 14 days; format: organism-based; conditions: in vivo, 336 h, dose 30-300 mg/kg, time 14 day
U-937 [6] = test: Induction of apoptosis in human U-937 cells assessed as viable cells at 5 uM incubated for 24 hrs by Annexin V FITC/PI staining based flow cytometry analysis ( Rvb = 95.2 +/- 0.4%); format: functional; conditions: read-out: Activity
[7] = Half-life in Sprague-Dawley rat at 1 mg/kg, iv by LC-MS analysis; format: ADME, organism-based; conditions: in vivo
[8] = Mean residence time in Sprague-Dawley rat at 1 mg/kg, po by LC-MS analysis; format: ADME, organism-based; conditions: in vivo
[9] = AUC(0 to t) in Sprague-Dawley rat at 1 mg/kg, po by LC-MS analysis; format: ADME, organism-based; conditions: in vivo
[10] = Oral bioavailability in Sprague-Dawley rat at 5 mg/kg by LC-MS analysis; format: ADME, organism-based; conditions: in vivo
[11] = Acute toxicity in ICR mouse assessed as change in histology of kidney at 30 to 300 mg/kg, po measured every other day for 14 days by H and E staining based assay; format: organism-based; conditions: in vivo, 336 h, dose 30-300 mg/kg, time 14 day
[12] = Acute toxicity in ICR mouse assessed as change in histology of heart at 30 to 300 mg/kg, po measured every other day for 14 days by H and E staining based assay; format: organism-based; conditions: in vivo, 336 h, dose 30-300 mg/kg, time 14 day
[13] = Oral bioavailability in Sprague-Dawley rat at 1 mg/kg by LC-MS analysis; format: ADME, organism-based; conditions: in vivo
[14] = Acute toxicity in ICR mouse assessed as change in water intake at 30 to 300 mg/kg, po measured every other day for 14 days; format: organism-based; conditions: in vivo, 336 h, dose 30-300 mg/kg, time 14 day
HT-29 [15] = test: Induction of apoptosis in human HT-29 cells assessed as viable cells at 5 uM incubated for 24 hrs by Annexin V FITC/PI staining based flow cytometry analysis ( Rvb = 99 +/- 0.1%); format: functional; conditions: read-out: Activity
CYP3A4 = CYP3A4 (Homo sapiens, UniProt P08684); test: Inhibition of CYP3A4 in human liver microsomes assessed as remaining activity at 10 uM using midazolam as substrate preincubated for 5 mins followed by NADPH generating system addition for 15 mins by LC-MS/MS method relative to control; format: ADME, Microsome; conditions: probe midazolam, time 20 min, read-out: Activity
CYP3A4, sequence (P08684 whole entry): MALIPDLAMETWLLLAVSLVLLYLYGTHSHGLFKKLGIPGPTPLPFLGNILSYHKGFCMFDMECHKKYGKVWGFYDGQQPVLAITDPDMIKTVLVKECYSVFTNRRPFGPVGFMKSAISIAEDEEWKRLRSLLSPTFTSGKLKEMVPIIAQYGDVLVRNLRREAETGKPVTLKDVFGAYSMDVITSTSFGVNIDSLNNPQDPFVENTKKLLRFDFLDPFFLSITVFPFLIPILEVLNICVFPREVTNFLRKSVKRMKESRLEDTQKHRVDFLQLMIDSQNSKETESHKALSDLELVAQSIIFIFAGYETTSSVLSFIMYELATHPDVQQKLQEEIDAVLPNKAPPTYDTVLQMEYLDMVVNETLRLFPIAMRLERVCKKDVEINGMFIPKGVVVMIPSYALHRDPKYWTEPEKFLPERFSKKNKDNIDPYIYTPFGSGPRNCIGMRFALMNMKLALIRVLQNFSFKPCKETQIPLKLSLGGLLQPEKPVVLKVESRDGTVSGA

[16] = Acute toxicity in ICR mouse assessed as digestive disorder at 30 to 300 mg/kg, po measured every other day for 14 days; format: organism-based; conditions: in vivo, 336 h, dose 30-300 mg/kg, time 14 day
[17] = Mean residence time in Sprague-Dawley rat at 1 mg/kg, iv by LC-MS analysis; format: ADME, organism-based; conditions: in vivo
[18] = AUC(0 to t) in Sprague-Dawley rat at 5 mg/kg, po by LC-MS analysis; format: ADME, organism-based; conditions: in vivo
[19] = Cmax in Sprague-Dawley rat at 1 mg/kg, iv by LC-MS analysis; format: ADME, organism-based; conditions: in vivo
[20] = Acute toxicity in ICR mouse assessed as change in kidney weight at 30 to 300 mg/kg, po measured every other day for 14 days […]; format: organism-based; conditions: in vivo, 336 h, dose 30-300 mg/kg, time 14 day
HT-29 [21] = test: Induction of apoptosis in human HT-29 cells assessed as viable cells at 1 uM incubated for 24 hrs by Annexin V FITC/PI staining based flow cytometry analysis ( Rvb = 99 +/- 0.1%); format: functional; conditions: read-out: Activity
[22] = Acute toxicity in ICR mouse assessed as change in histology of liver at 30 to 300 mg/kg, po measured every other day for 14 days by H and E staining based assay; format: organism-based; conditions: in vivo, 336 h, dose 30-300 mg/kg, time 14 day
[23] = Acute toxicity in ICR mouse assessed as change in liver weight at 30 to 300 mg/kg, po measured every other day for 14 days […]; format: organism-based; conditions: in vivo, 336 h, dose 30-300 mg/kg, time 14 day
[24] = Acute toxicity in ICR mouse assessed as weight loss at 30 to 300 mg/kg, po measured every other day for 14 days; format: organism-based; conditions: in vivo, 336 h, dose 30-300 mg/kg, time 14 day
[25] = target: T2, G-protein coupled estrogen receptor 1 (Homo sapiens, UniProt Q99527); test: Binding affinity to human GPER by SPR method
T2 sequence (Q99527 whole entry): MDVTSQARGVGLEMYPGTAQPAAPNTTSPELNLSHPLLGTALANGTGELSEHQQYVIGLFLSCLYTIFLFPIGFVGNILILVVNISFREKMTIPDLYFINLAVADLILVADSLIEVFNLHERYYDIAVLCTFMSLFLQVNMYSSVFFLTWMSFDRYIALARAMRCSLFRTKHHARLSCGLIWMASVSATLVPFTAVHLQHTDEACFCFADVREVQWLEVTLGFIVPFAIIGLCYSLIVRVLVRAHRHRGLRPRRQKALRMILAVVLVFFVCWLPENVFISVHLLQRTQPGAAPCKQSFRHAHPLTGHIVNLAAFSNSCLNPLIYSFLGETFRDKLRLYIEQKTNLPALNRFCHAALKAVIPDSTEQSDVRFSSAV

[26] = Half life in Sprague-Dawley rat at 5 mg/kg, po by LC-MS analysis; format: ADME, organism-based; conditions: in vivo
[27] = target: T2, G-protein coupled estrogen receptor 1; test: Inhibition of GPER1 (unknown origin)
CYP2D6 = CYP2D6 (Homo sapiens, UniProt P10635); test: Inhibition of CYP2D6 in human liver microsomes assessed as remaining activity at 10 uM using dextromethorphan as substrate preincubated for 5 mins followed by NADPH generating system addition for 15 mins by LC-MS/MS method relative to control; format: ADME, Microsome; conditions: probe dextromethorphan, time 20 min, read-out: Activity
CYP2D6, sequence (P10635 whole entry): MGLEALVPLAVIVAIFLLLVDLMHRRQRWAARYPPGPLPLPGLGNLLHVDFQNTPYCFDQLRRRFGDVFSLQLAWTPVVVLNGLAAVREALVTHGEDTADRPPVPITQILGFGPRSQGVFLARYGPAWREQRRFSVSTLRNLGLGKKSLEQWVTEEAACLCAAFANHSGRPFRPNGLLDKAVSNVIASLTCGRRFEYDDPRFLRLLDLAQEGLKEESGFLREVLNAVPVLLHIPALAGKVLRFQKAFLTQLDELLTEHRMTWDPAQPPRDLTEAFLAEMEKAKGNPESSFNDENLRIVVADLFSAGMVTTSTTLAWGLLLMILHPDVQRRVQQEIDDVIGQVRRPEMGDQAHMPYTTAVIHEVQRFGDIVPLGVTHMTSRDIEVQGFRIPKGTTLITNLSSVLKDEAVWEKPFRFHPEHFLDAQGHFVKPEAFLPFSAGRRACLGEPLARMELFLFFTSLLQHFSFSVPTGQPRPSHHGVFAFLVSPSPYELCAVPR

U-937 [28] = test: Induction of apoptosis in human U-937 cells assessed as viable cells at 10 uM incubated for 24 hrs by Annexin V FITC/PI staining based flow cytometry analysis ( Rvb = 95.2 +/- 0.4%); format: functional; conditions: read-out: Activity

Compound `Cc1nc(NC(=O)c2sc3cc(F)ccc3c2Cl)c(C)c(C)c1O` has an activity at 10 µM (hERG) of 91.7%, a viability at 10 µM (HT-29 [1]) of 98.6% and an MRT [2] of 5 h. It also gave an activity at 0.25 h, 10 µM (CYP1A2) of 89.2%, an AUCt [3] of 10006.6 ng·h/mL and a Vd [4] of 1.3 L/kg. The Activity [5] was “Non-Toxic”, the viability at 5 µM (U-937 [6]) was 95.2% and the half-life [7] was 2 h. The MRT [8] was 5.7 h, the AUCt [9] was 246.3 ng·h/mL and the F [10] was 36.7%. The Activity [11] was “Non-Toxic”, the Activity [12] was “Non-Toxic” and the F [13] was 24.5%. For the same compound, the Activity [14] was “Non-Toxic”, the viability at 5 µM (HT-29 [15]) was 98.7% and the activity at 0.25 h, 10 µM (CYP3A4) was 89.9%. For the same compound, the Activity [16] was “Non-Toxic”, the MRT [17] was 1.2 h and the AUCt [18] was 1849.2 ng·h/mL. For the same compound, the Cmax [19] was 1880 ng/mL, the Activity [20] was “Non-Toxic” and the viability at 1 µM (HT-29 [21]) was 98.8%. For the same compound, the Activity [22] was “Non-Toxic”, the Activity [23] was “Non-Toxic” and the Activity [24] was “Non-Toxic”. For the same compound, the Kd [25] was 23.7 nM, the half-life [26] was 3.3 h and the EC50 [27] was 480 nM. The activity at 0.25 h, 10 µM (CYP2D6) was 86% and the viability at 10 µM (U-937 [28]) was 95.2%.
